# From publication PMC10743929, “Amphiphilic Sialic Acid Derivatives as Potential Dual-Specific Inhibitors of Influenza Hemagglutinin and Neuraminidase” (International Journal of Molecular Sciences, 2023)
# Where two headings read alike, the source gives them in different places.
# Experiments:
# IAV (A/H3N2) = test: CPE reduction assay, influenza A/H3N2 in MDCK cells; assay type: cell-based, influenza A virus A/H3N2 (A/Victoria/361/11 or A/HK/7/87); conditions: Influenza A virus, H3N2, 72 h
# Procedure: (§1) The process of CPE reduction assay for the influenza virus was described previously. The virus strains were A/Virginia/ATCC3/2009, A/PR/8 (A/H1N1), A/Victoria/361/11, A/HK/7/87 (A/H3N2), and B/Ned/537/05 (IBV). On day 0, Madin-Darby canine kidney (MDCK) cells in 96-well plates were infected with influenza virus at a multiplicity of infection (MOI) of 0.0004 plaque forming units (PFU) per cell, and that was incubated at 35 °C for 3 days. After the third day, virus-induced CPE and compound cytotoxicity were scored by microscopy, and the data were confirmed by formazan-based MTS cell viability assay (CellTiter 96® AQueous One Solution Cell Proliferation Assay from Promega, Madison, WI, USA). […] Compound cytotoxicity was expressed as the concentration of the compound causing minimal changes in cell morphology (MCC) and 50% cytotoxic concentration (CC50) based on the MTS assay.
# [1] = test system: Madin-Darby canine kidney (MDCK) cells; test: Compound cytotoxicity in MDCK cells (microscopy, MTS); conditions: microscopically visible alterations in cell morphology
# IBV = test: CPE reduction assay, influenza B in MDCK cells; assay type: cell-based, influenza B virus (B/Ned/537/05); conditions: Influenza B virus, 72 h
# Procedure: as §1
# IAV (A/H1N1) = test: CPE reduction assay, influenza A/H1N1 in MDCK cells; assay type: cell-based, influenza A virus A/H1N1 (A/Virginia/ATCC3/2009 or A/PR/8); conditions: Influenza A virus, H1N1, 72 h
# Procedure: as §1
# in vitro = conditions: dog
smiles,measurement,setting,value
"CC(=O)N[C@H]1[C@H]([C@H](O)[C@H](O)CO)OC(C(=O)O)=C[C@@H]1N=C(N)N [Zanamivir, reference compound]",EC50,"IAV (A/H3N2); MTS cell viability assay, day 3, read-out: Antiviral EC50, IAV (A/H3N2), MTS",1 µM
same,EC50,"IAV (A/H3N2); microscopic scoring of cytopathic effect, day 3, read-out: Antiviral EC50, IAV (A/H3N2), CPE",1.6 µM
same,Cytotoxicity MCC (minimum cytotoxic concentration),[1],>100 µM
same,EC50,"IBV; MTS cell viability assay, day 3, read-out: Antiviral EC50, IBV, MTS",4.5 µM
same,EC50,"IBV; microscopic scoring of cytopathic effect, day 3, read-out: Antiviral EC50, IBV, CPE",2.1 µM
same,EC50,"IAV (A/H1N1); MTS cell viability assay, day 3, read-out: Antiviral EC50, IAV (A/H1N1), MTS",8.5 ± 3.4 µM
same,EC50,"IAV (A/H1N1); microscopic scoring of cytopathic effect, day 3, read-out: Antiviral EC50, IAV (A/H1N1), CPE",10 ± 3 µM
same,CC50,in vitro,> 100 µM
